Experimental data: PubChem BioAssay (NCI)
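All cell lines were grown in 96-well plates and treated with compound for 48 hours. GI50 marks 50% less growth. At the TGI there is no net growth.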

Columns and labels:
Assay in all cases: NCI-60 cell line screen, 48 h
[1] = system: IGROV1 ovarian
[2] = system: SN12C renal
[3] = system: A549 NSCLC
[4] = system: COLO 205 colon
[5] = system: OVCAR-5 ovarian
[6] = system: A498 renal
[7] = system: K-562 leukemia
[8] = system: SNB-75 CNS
[9] = system: HOP-92 NSCLC
[10] = system: LOX IMVI melanoma
[11] = system: SF-539 CNS
[12] = system: RPMI-8226 leukemia
[13] = system: HOP-62 NSCLC
[14] = system: SK-OV-3 ovarian
[15] = system: SF-295 CNS
[16] = system: MCF7 breast
[17] = system: NCI-H23 lung
[18] = system: HL-60(TB) leukemia
[19] = system: SNB-19 CNS
[20] = system: ACHN renal
[21] = system: U251 CNS
[22] = system: UO-31 renal
[23] = system: NCI-H522 lung
[24] = system: EKVX NSCLC
[25] = system: MOLT-4 leukemia
[26] = system: HCT-15 colon
[27] = system: MDA-MB-231 breast
[28] = system: NCI/ADR-RES ovarian
[29] = system: 786-0 renal
[30] = system: UACC-257 melanoma
[31] = system: HS 578T breast
[32] = system: OVCAR-4 ovarian
[33] = system: T-47D breast
[34] = system: OVCAR-3 ovarian
[35] = system: DU-145 prostate
[36] = system: SF-268 CNS
[37] = system: KM12 colon
[38] = system: SK-MEL-5 melanoma
[39] = system: NCI-H226 lung
[40] = system: SW-620 colon
[41] = system: CCRF-CEM leukemia
[42] = system: BT-549 breast
[43] = system: HT29 colon
[44] = system: HCT-116 colon
[45] = system: NCI-H460 lung
[46] = system: OVCAR-8 ovarian
[47] = system: SR leukemia
[48] = system: SK-MEL-28 melanoma
[49] = system: HCC-2998 colon
[50] = system: MDA-MB-468 breast
[51] = system: MALME-3M melanoma
[52] = system: TK-10 renal
[53] = system: SK-MEL-2 melanoma
[54] = system: M14 melanoma
[55] = system: PC-3 prostate
[56] = system: UACC-62 melanoma
[57] = system: RXF 393 renal
[58] = system: MDA-MB-435
[59] = system: CAKI-1 renal

Compound: O=C(CNc1nc(-c2ccccc2)cs1)Nc1ccc([N+](=O)[O-])cc1Cl
- GI50 [1]: 4.29 µM
- TGI [1]: 15.5 µM
- GI50 [2]: 3.72 µM
- TGI [2]: 13.9 µM
- GI50 [3]: 6.05 µM
- TGI [3]: 19 µM
- GI50 [4]: 11.5 µM
- TGI [4]: 23.7 µM
- GI50 [5]: 6.18 µM
- TGI [5]: 20.2 µM
- GI50 [6]: 7.11 µM
- TGI [6]: 20.1 µM
- GI50 [7]: 3.42 µM
- TGI [7]: 13.9 µM
- GI50 [8]: 1730 nM
- TGI [8]: 9.94 µM
- GI50 [9]: 4.28 µM
- TGI [9]: 16.7 µM
- GI50 [10]: 2960 nM
- TGI [10]: 11.7 µM
- GI50 [11]: 5.36 µM
- TGI [11]: 17.6 µM
- GI50 [12]: 2990 nM
- TGI [12]: 13.2 µM
- GI50 [13]: 7.02 µM
- TGI [13]: 20 µM
- GI50 [14]: 6.18 µM
- TGI [14]: 19.2 µM
- GI50 [15]: 4.47 µM
- TGI [15]: 16.6 µM
- GI50 [16]: 3.26 µM
- TGI [16]: 13.4 µM
- GI50 [17]: 4.6 µM
- TGI [17]: 17 µM
- GI50 [18]: 2800 nM
- TGI [18]: 11 µM
- GI50 [19]: 7.71 µM
- TGI [19]: 20.3 µM
- GI50 [20]: 5.51 µM
- TGI [20]: 18.2 µM
- GI50 [21]: 4.42 µM
- TGI [21]: 16.8 µM
- GI50 [22]: 3.37 µM
- TGI [22]: 15.5 µM
- GI50 [23]: 2900 nM
- TGI [23]: 12 µM
- GI50 [24]: 3.44 µM
- TGI [24]: 14.3 µM
- GI50 [25]: 3.17 µM
- TGI [25]: 11.6 µM
- GI50 [26]: 3.34 µM
- TGI [26]: 12.8 µM
- GI50 [27]: 4.94 µM
- TGI [27]: 17.1 µM
- GI50 [28]: 4.11 µM
- TGI [28]: 14.6 µM
- GI50 [29]: 3.3 µM
- TGI [29]: 13.2 µM
- GI50 [30]: 7.55 µM
- TGI [30]: 20.2 µM
- GI50 [31]: 3.74 µM
- TGI [31]: 15.1 µM
- GI50 [32]: 6.55 µM
- TGI [32]: 19.5 µM
- GI50 [33]: 3.37 µM
- TGI [33]: 13.5 µM
- GI50 [34]: 3.62 µM
- TGI [34]: 14.1 µM
- GI50 [35]: 10.6 µM
- TGI [35]: 22.5 µM
- GI50 [36]: 3.98 µM
- TGI [36]: 16.2 µM
- GI50 [37]: 4.17 µM
- TGI [37]: 14.9 µM
- GI50 [38]: 3.66 µM
- TGI [38]: 14 µM
- GI50 [39]: 6.78 µM
- TGI [39]: 19.3 µM
- GI50 [40]: 4.47 µM
- TGI [40]: 16.2 µM
- GI50 [41]: 3.05 µM
- TGI [41]: 12.2 µM
- GI50 [42]: 2290 nM
- TGI [42]: 7.66 µM
- GI50 [43]: 7.63 µM
- TGI [43]: 20.4 µM
- GI50 [44]: 3.36 µM
- TGI [44]: 12.6 µM
- GI50 [45]: 9.34 µM
- TGI [45]: 21.2 µM
- GI50 [46]: 5.69 µM
- TGI [46]: 18.3 µM
- GI50 [47]: 4.67 µM
- TGI [47]: 17.4 µM
- GI50 [48]: 12.1 µM
- TGI [48]: 24.5 µM
- GI50 [49]: 6.94 µM
- TGI [49]: 19.7 µM
- GI50 [50]: 1960 nM
- TGI [50]: 4.88 µM
- GI50 [51]: 9 µM
- TGI [51]: 21 µM
- GI50 [52]: 8.04 µM
- TGI [52]: 20.5 µM
- GI50 [53]: 8.86 µM
- TGI [53]: 21 µM
- GI50 [54]: 3.6 µM
- TGI [54]: 13.5 µM
- GI50 [55]: 5.17 µM
- TGI [55]: 17.9 µM
- GI50 [56]: 3.6 µM
- TGI [56]: 15.4 µM
- GI50 [57]: 4.38 µM
- TGI [57]: 15 µM
- GI50 [58]: 4.88 µM
- TGI [58]: 16.9 µM
- GI50 [59]: 3.34 µM
- TGI [59]: 14.5 µM
